Laboratory results from US12459974B2, “Bicyclic peptide ligands specific for Nectin-4” (priority 2018, dated 2025).
Where two headings read alike, the source gives them in different places. *1 amine or outer side, *2 acyl side, *3 side chain or, on linkers, in order; H or OH if unused. Where a SMILES comes first, the peptide text is derived from it. Bridges are numbered along the chain shown (N, C = ends). Roman numbers before positions name the chains, in order. [ ]: non-standard residue; d: D form. The star is where a group is joined. TATA = O=C(CC[*:1])N1CN(C(=O)CC[*:2])CN(C(=O)CC[*:3])C1; Dolaproine = CO[C@@H]([C@@H]1CCCN1)[C@@H](C)C(=O)O; Dil = CC[C@H](C)[C@H](NC)[C@@H](CC(=O)O)OC; 1Nal = N[C@@H](Cc1cccc2ccccc12)C(=O)O; X3 = O=C(CCCC(=O)[*:2])NCCC(=O)[*:1]; PABC = O=C(OCc1ccc(N[*:1])cc1)[*:2]; X4 = C[C@@H](N*)[C@@H](O)c1ccccc1; Cya = N[C@@H](CS(=O)(=O)O)C(=O)O; Hyp = O=C(O)[C@@H]1C[C@@H](O)CN1; hArg = N=C(N)NCCCC[C@H](N)C(=O)O; Cit = NC(=O)NCCC[C@H](N)C(=O)O; NMeV = CN[C@H](C(=O)O)C(C)C; βAla = NCCC(=O)O; Sar = CNCC(=O)O

How the values were obtained:
[1] = target: T1, human Nectin-4 (Homo sapiens, UniProt Q96NY8); assay: Nectin-4 Biacore SPR binding assay
T1 sequence (Q96NY8 32-349): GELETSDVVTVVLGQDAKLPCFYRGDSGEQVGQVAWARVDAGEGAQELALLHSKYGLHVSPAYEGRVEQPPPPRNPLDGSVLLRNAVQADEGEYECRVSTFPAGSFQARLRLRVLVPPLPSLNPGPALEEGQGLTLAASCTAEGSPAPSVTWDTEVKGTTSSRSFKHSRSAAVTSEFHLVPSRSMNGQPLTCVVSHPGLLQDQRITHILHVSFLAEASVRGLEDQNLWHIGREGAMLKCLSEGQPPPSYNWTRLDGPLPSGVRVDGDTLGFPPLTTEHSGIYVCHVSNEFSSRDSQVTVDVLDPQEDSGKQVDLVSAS
Protocol: Biacore experiments were performed to determine ka (M^−1 s^−1), kd (s^−1), KD (nM) values of monomeric peptides binding to human Necin-4 protein (obtained from Charles River).
Human Nectin-4 (residues Gly32-Ser349; NCBI RefSeq: NP_112178.2) with a gp67 signal sequence and C-terminal FLAG tag was cloned into pFastbac-1 and baculovirus made using standard Bac-to-Bac™ protocols (Life Technologies). Sf21 cells at 1×10^6 ml^−1 in Excell-420 medium (Sigma) at 27° C. were infected at an MOI of 2 with a P1 virus stock and the supernatant harvested at 72 hours. […] The protein was eluted with 100 μg/ml FLAG peptide. The eluted protein was concentrated to 2 ml and loaded onto an S-200 Superdex column (GE Healthcare) in PBS at 1 ml/min. 2 ml fractions were collected and the fractions containing Nectin-4 protein were concentrated to 16 mg/ml.
The protein was extensively desalted to remove uncoupled biotin using spin columns into PBS.
For analysis of peptide binding, a Biacore 3000 instrument was used utilising a CM5 chip (GE Healthcare). Streptavidin was immobilized on the chip using standard amine-coupling chemistry at 25° C. with HBS-N (10 mM HEPES, 0.15 M NaCl, pH 7.4) as the running buffer. Briefly, the carboxymethyl dextran surface was activated with a 7 minute injection of a 1:1 ratio of 0.4 M 1-ethyl-3-(3-dimethylaminopropyl) carbodiimide hydrochloride (EDC)/0.1 M N-hydroxy succinimide (NHS) at a flow rate of 10 μl/min. For capture of streptavidin, the protein was diluted to 0.2 mg/ml in 10 mM sodium acetate (pH 4.5) and captured by injecting 120 μl of streptavidin onto the activated chip surface. Residual activated groups were blocked with a 7 minute injection of 1 M ethanolamine (pH 8.5) and biotinylated Nectin-4 captured to a level of 1,200-1,800 RU. Buffer was changed to PBS/0.05% Tween 20 and a dilution series of the peptides was prepared in this buffer with a final DMSO concentration of 0.5%. The top peptide concentration was 100 nM with 6 further 2-fold dilutions. The SPR analysis was run at 25° C. at a flow rate of 50 μl/min with 60 seconds association and dissociation between 400 and 1,200 seconds depending upon the individual peptide. Data were corrected for DMSO excluded volume effects. All data were double-referenced for blank injections and reference surface using standard processing procedures and data processing and kinetic fitting were performed using Scrubber software, version 2.0c (BioLogic Software). Data were fitted using simple 1:1 binding model allowing for mass transport effects where appropriate.

[2] = target: T2, human Nectin-4 (Homo sapiens, UniProt Q96NY8); assay: Nectin-4 competition binding assay (fluorescence polarisation); conditions: competition with fluorescent peptide SEQ ID NO: 217; read-out: Ki
T2 sequence (Q96NY8 32-510): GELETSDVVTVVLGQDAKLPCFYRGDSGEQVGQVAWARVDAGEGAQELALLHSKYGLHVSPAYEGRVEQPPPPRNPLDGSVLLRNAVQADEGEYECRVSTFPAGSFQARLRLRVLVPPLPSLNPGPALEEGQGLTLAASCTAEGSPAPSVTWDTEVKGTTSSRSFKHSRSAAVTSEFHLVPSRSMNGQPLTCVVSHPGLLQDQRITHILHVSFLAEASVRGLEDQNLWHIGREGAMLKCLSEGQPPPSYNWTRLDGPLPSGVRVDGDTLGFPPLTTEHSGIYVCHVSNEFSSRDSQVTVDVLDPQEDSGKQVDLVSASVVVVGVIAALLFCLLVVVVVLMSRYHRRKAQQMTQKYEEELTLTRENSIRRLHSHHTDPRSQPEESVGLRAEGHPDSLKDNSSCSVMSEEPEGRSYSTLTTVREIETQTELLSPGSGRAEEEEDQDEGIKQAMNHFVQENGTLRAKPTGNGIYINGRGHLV
Summary of the method: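 Serially diluted (1 in 2) peptides, max 5% DMSO, were mixed with human Nectin-4 and a fluorescent tracer peptide; FP read as in the direct binding assay. Ki from fitting mP values to a cubic competition equation using tracer concentration, tracer Kd and Nectin-4 concentration.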

[3] = tested on: HT-1376 xenograft; assay: Example 2: in vivo efficacy in HT-1376 xenograft (bladder cancer model) in CB17-SCID mice; conditions: 1 mg/kg
Protocol: The major endpoint was to see if the tumor growth could be delayed or mice could be cured. Tumor volume was measured three times weekly in two dimensions using a caliper, and the volume was expressed in mm^3 using the formula: V=0.5 a×b^2 where a and b are the long and short diameters of the tumor, respectively. The tumor size was then used for calculations of T/C value. The T/C value (in percent) is an indication of antitumor effectiveness; T and C are the mean volumes of the treated and control groups, respectively, on a given day. TGI was calculated for each group using the formula: TGI (%)=[1−(Ti−T0)/(Vi−V0)]×100; Ti is the average tumor volume of a treatment group on a given day, T0 is the average tumor volume of the treatment group on the day of treatment start, Vi is the average tumor volume of the vehicle control group on the same day with Ti, and V0 is the average tumor volume of the vehicle group on the day of treatment start.
A one-way ANOVA was performed to compare tumor volume among groups, and when a significant F-statistics (a ratio of treatment variance to the error variance) was obtained, comparisons between groups were carried out with Games-Howell test. […] P<0.05 was considered to be statistically significant.
• Species: Mus Musculus • Strain: CB17-SCID • Age: 6-8 weeks • Sex: female • Body weight: 18-22 g • Number of animals: 21-41 mice plus spare • Animal supplier: Shanghai LC Laboratory Animal Co., LTD.
The HT-1376 tumor cells were maintained in vitro as a monolayer culture in EMEM medium supplemented with 10% heat inactivated fetal bovine serum at 37° C. in an atmosphere of 5% CO2 in air. The tumor cells were routinely subcultured twice weekly by trypsin-EDTA treatment.
Each mouse was inoculated subcutaneously at the right flank with HT-1376 tumor cells (5×10^6) in 0.2 ml of PBS with matrigel (1:1) for tumor development. Animals were randomized when the average tumor volume reached 153-164 mm^3.
Tumor growth inhibition rate for Test articles in the HT-1376 xenograft model was calculated based on tumor volume measurements at day 21 after the start of treatment.

[4] = tested on: MDA-MB-468 cell line; assay: Example 11: HCS assay, Nectin-4 BDC binding study; assay type: cell-based
Protocol: HCS assay was used in Nectin-4 BDC binding study. Cells were incubated with test agent and then washed. Detection was by a fluorescent antibody to MMAE.

Compound	Kd [1] [nM]	Ki [2] [nM]	further results
CC[C@H](C)[C@@H]1NC(=O)[C@@H]2CCCN2C(=O)[C@H](Cc2c[nH]c3ccccc23)NC(=O)[C@H](CO)NC(=O)[C@H](Cc2c[nH]c3ccccc23)NC(=O)[C@H](CC(N)=O)NC(=O)[C@H](CCCCN)NC(=O)[C@H](CCSC)NC(=O)[C@@H]2CSCCC(=O)N3CN(CN(C3)C(=O)CCSC[C@H](NC(=O)[C@H](C)N)C(=O)N3CCC[C@H]3C(=O)N[C@@H](Cc3ccccc3)C(=O)NCC(=O)N2)C(=O)CCSC[C@@H](C(=O)N[C@@H](C)C(N)=O)NC(=O)[C@H](Cc2c[nH]c3ccccc23)NC1=O [BCY428, A-(SEQ ID NO: 1)-A]	334	61	
CC[C@H](C)[C@@H]1NC(=O)[C@@H]2CCCN2C(=O)[C@H](Cc2c[nH]c3ccccc23)NC(=O)[C@H](CO)NC(=O)[C@H](Cc2c[nH]c3ccccc23)NC(=O)[C@H](CC(N)=O)NC(=O)[C@H](CCCCN)NC(=O)[C@H](CCSC)NC(=O)[C@@H]2CSCCC(=O)N3CN(CN(C3)C(=O)CCSC[C@H](NC(C)=O)C(=O)N3CCC[C@H]3C(=O)N[C@@H](Cc3ccccc3)C(=O)NCC(=O)N2)C(=O)CCSC[C@@H](C(N)=O)NC(=O)[C@H](Cc2c[nH]c3ccccc23)NC1=O [BCY7390, Ac-(SEQ ID NO: 1)] (Ac-CPFGCMKNWSWPIWC-NH2; linker 1-5-15 via TATA; C-terminus assumed)	40.3	17.1	
CC[C@H](C)[C@@H]1NC(=O)[C@@H]2CCCN2C(=O)[C@H](Cc2c[nH]c3ccccc23)NC(=O)[C@H](CO)NC(=O)[C@H](Cc2c[nH]c3ccccc23)NC(=O)[C@H](CC(N)=O)NC(=O)[C@H](CCCCN)NC(=O)[C@H](CCSC)NC(=O)[C@@H]2CSCCC(=O)N3CN(CN(C3)C(=O)CCSC[C@H](NC(C)=O)C(=O)N3CCC[C@H]3C(=O)N[C@@H](Cc3ccccc3)C(=O)NCC(=O)N2)C(=O)CCSC[C@@H](C(=O)N[C@H](C(=O)N[C@@H](CC(N)=O)C(=O)N[C@@H](CCCCN)C(N)=O)[C@@H](C)O)NC(=O)[C@H](Cc2c[nH]c3ccccc23)NC1=O [BCY7391, Ac-(SEQ ID NO: 1)-TNK] (Ac-CPFGCMKNWSWPIWCTNK-NH2; linker 1-5-15 via TATA; C-terminus assumed)	59.8	13.3	
CC(=O)N[C@H]1CSCCC(=O)N2CN3CN(C2)C(=O)CCSC[C@H](NC(=O)[C@H](CC(=O)O)NC(=O)[C@H](Cc2ccc(O)cc2)NC(=O)[C@H](CO)NC(=O)[C@H]([C@@H](C)O)NC(=O)[C@H]([C@@H](C)O)NC(=O)[C@H](C(C)C)NC1=O)C(=O)N[C@@H](Cc1c[nH]c2ccccc12)C(=O)N[C@@H](C(C)C)C(=O)N[C@@H]([C@@H](C)O)C(=O)N[C@@H](CC(C)C)C(=O)NCC(=O)N[C@@H](Cc1c[nH]cn1)C(=O)N[C@H](C(=O)N[C@@H](CO)C(=O)N[C@@H](CCCNC(=N)N)C(=O)N[C@@H](Cc1ccccc1)C(N)=O)CSCCC3=O [BCY7393, Ac-(SEQ ID NO: 37)-SRF] (Ac-CVTTSYDCWVTLGHCSRF-NH2; linker 1-8-15 via TATA; C-terminus assumed)	1380	232	
CC[C@H](C)[C@@H]([C@@H](CC(=O)N1CCC[C@H]1[C@H](OC)[C@@H](C)C(=O)N[C@H](C)[C@@H](O)c1ccccc1)OC)N(C)C(=O)[C@@H](NC(=O)[C@H](C(C)C)N(C)C(=O)OCc1ccc(NC(=O)[C@H](CCCNC(N)=O)NC(=O)[C@@H](NC(=O)CCCC(=O)NCCC(=O)N(C)CC(=O)N(C)CC(=O)N(C)CC(=O)N(C)CC(=O)N(C)CC(=O)N(C)CC(=O)N(C)CC(=O)N(C)CC(=O)N(C)CC(=O)N(C)CC(=O)N[C@H]2CSCCC(=O)N3CN4CN(C3)C(=O)CCSC[C@H](NC(=O)[C@@H](CC(=O)O)NC(=O)[C@H](Cc3ccccc3)NC(=O)[C@@H]3CCCN3C2=O)C(=O)N[C@@H](CCSC)C(=O)N[C@@H](CCCCNC(=N)N)C(=O)N[C@@H](CC(N)=O)C(=O)N[C@@H](Cc2c[nH]c3ccccc23)C(=O)N[C@@H](CO)C(=O)N[C@@H]([C@@H](C)O)C(=O)N2CCC[C@H]2C(=O)N[C@@H]([C@@H](C)CC)C(=O)N[C@@H](Cc2c[nH]c3ccccc23)C(=O)N[C@H](C(N)=O)CSCCC4=O)C(C)C)cc1)C(C)C [BCY7825, MMAE-PABC-Cit-Val-Glutaryl-BCY7814] (I: [Sar][Sar][Sar][Sar][Sar][Sar][Sar][Sar][Sar][Sar]CPF[dD]CM[hArg]NWSTPIWC-NH2 / II: V[Cit][PABC][NMeV]V[Dil][Dolaproine]-X4; linker I:11-I:15-I:25 via TATA; linker I:N-II:N via X3)	11.6		bodyweight (in words) [3]: maintained the bodyweight well
CC(=O)N[C@H]1CSCCC(=O)N2CN3CN(C2)C(=O)CCSC[C@H](NC(=O)[C@@H](CC(=O)O)NC(=O)[C@H](Cc2ccccc2)NC(=O)[C@@H]2CCCN2C1=O)C(=O)N[C@@H](CC(C)C)C(=O)N[C@@H](CCCCNC(=N)N)C(=O)N[C@@H](CC(N)=O)C(=O)N[C@@H](Cc1c[nH]c2ccccc12)C(=O)N[C@@H](CO)C(=O)N[C@@H]([C@@H](C)O)C(=O)N1CCC[C@H]1C(=O)N1CCC[C@H]1C(=O)N[C@@H](Cc1c[nH]c2ccccc12)C(=O)N[C@H](C(N)=O)CSCCC3=O [BCY8038, Ac-(SEQ ID NO: 160)] (Ac-CPF[dD]CL[hArg]NWSTPPWC-NH2; linker 1-5-15 via TATA; C-terminus assumed)	44.5	8	
CSCC[C@@H]1NC(=O)[C@@H]2CSCCC(=O)N3CN(CN(C3)C(=O)CCSC[C@H](NC(=O)CN(C)C(=O)CN(C)C(=O)CN(C)C(=O)CN(C)C(=O)CN(C)C(=O)CN(C)C(=O)CN(C)C(=O)CN(C)C(=O)CN(C)C(=O)CN(C)C(=O)CCNC(C)=O)C(=O)N3CCC[C@H]3C(=O)N[C@@H](Cc3cccc4ccccc34)C(=O)N[C@H](CC(=O)O)C(=O)N2)C(=O)CCSC[C@@H](C(N)=O)NC(=O)[C@H](Cc2c[nH]c3ccccc23)NC(=O)[C@@H]2C[C@@H](O)CN2C(=O)[C@@H]2CCCN2C(=O)[C@H]([C@@H](C)O)NC(=O)[C@H](CO)NC(=O)[C@H](Cc2c[nH]c3ccccc23)NC(=O)[C@H](CC(=O)O)NC(=O)[C@H](CS(=O)(=O)O)NC1=O [BCY8277, Ac-[B-Ala][Sar10]-(SEQ ID NO: 178)] (Ac-[βAla][Sar][Sar][Sar][Sar][Sar][Sar][Sar][Sar][Sar][Sar]CP[1Nal][dD]CM[Cya]DWSTP[Hyp]WC-NH2; linker 12-16-26 via TATA; C-terminus assumed)	5.99		
CC[C@H](C)[C@@H]([C@@H](CC(=O)N1CCC[C@H]1[C@H](OC)[C@@H](C)C(=O)N[C@H](C)[C@@H](O)c1ccccc1)OC)N(C)C(=O)[C@@H](NC(=O)[C@@H](NC)C(C)C)C(C)C [MMAE, Monomethyl auristatin E, reference compound] (H-[NMeV]V[Dil][Dolaproine]-X4)			binding affinity on MDA-MB-468 cell line (in words) [4]: almost no detectable binding affinity; Max fluorescent intensity ([4]; MDA-MB-468 cell line, fluorescent antibody to MMAE): 2.95; Kd ([4]; MDA-MB-468 cell line, historical data, read-out: Historical Kd): > 10 µM; Kd ([4]; MDA-MB-468 cell line, read-out: Kd): > 10 µM; retention on the cells (in words) ([4]; detection by a fluorescent antibody to MMAE): minimal retention
